Experimental data reported in ChEMBL document CHEMBL1126615, “Structure-activity relationships in prazosin-related compounds. 2. Role of the piperazine ring on alpha-blocking activity” (J Med Chem, 1993).

Experiments:
[1] = The alpha1/alpha2 selectivity ratio is the antilog of the difference between pA2 values at alpha1 and alpha-2 adrenoceptor; format: functional
[2] = molecular target: T1, Adrenergic receptor alpha-2 (Rattus norvegicus, UniProt P22086+P19328+P22909); test: Alpha-2 Adrenoceptor blocking activity as antagonism of clonidine-induced depression of field-stimulated prostatic rat vas deferens; format: functional, tissue-based
T1 sequence (P22086 whole entry): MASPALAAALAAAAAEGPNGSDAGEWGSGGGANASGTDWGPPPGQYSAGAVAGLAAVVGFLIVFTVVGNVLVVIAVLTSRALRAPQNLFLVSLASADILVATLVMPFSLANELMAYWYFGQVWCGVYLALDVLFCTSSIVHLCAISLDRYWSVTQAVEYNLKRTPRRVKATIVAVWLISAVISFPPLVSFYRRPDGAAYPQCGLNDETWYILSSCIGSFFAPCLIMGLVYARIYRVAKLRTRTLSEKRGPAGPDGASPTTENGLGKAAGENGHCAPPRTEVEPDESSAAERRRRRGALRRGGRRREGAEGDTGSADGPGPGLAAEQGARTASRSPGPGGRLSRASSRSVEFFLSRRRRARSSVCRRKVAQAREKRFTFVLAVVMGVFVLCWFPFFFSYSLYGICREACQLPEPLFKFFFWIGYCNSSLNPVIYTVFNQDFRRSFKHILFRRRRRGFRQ
T1 sequence (P19328 whole entry): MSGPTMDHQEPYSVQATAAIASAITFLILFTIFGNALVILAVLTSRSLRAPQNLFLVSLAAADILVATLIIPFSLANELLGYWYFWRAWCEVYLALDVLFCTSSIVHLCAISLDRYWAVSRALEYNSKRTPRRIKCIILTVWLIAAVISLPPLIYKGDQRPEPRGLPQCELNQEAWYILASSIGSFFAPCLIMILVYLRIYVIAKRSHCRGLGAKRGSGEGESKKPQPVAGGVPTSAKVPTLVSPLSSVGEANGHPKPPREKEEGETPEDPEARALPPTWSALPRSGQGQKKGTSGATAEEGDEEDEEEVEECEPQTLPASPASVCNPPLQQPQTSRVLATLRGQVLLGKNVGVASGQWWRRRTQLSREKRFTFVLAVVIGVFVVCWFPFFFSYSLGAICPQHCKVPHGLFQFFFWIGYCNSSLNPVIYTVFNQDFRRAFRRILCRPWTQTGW
T1 sequence (P22909 whole entry): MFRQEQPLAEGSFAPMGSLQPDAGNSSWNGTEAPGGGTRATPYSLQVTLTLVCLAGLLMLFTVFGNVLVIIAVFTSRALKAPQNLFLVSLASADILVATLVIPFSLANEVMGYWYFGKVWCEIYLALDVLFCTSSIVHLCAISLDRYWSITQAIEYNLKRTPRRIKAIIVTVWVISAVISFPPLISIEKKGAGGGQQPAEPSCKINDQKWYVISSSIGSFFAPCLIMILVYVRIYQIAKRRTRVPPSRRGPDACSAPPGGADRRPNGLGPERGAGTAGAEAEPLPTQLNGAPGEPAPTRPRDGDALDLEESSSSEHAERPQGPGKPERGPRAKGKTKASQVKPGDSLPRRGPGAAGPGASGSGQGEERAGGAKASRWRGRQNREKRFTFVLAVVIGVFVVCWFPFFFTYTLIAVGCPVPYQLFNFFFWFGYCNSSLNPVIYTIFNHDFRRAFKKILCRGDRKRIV

[3] = molecular target: T2, Adrenergic receptor alpha-1 (Rattus norvegicus, UniProt P15823+P23944+P43140); test: Alpha-1 Adrenoceptor blocking activity as antagonism of norepinephrine-induced contractions of epididymal portion of rat vas deferens; format: functional, tissue-based
T2 sequence (P15823 whole entry): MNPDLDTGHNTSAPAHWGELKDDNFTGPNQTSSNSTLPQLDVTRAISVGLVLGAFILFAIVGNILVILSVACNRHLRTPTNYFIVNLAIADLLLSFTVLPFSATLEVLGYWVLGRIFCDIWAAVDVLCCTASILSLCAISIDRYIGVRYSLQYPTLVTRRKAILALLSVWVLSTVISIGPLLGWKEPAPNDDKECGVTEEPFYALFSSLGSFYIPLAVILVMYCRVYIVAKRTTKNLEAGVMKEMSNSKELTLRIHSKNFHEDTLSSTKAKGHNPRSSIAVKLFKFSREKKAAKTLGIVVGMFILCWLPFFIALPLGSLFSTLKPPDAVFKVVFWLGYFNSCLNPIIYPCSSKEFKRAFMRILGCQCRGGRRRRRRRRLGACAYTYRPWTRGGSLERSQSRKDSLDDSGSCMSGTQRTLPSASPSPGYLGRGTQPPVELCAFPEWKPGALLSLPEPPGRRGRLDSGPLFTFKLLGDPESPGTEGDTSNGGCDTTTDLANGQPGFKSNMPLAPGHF
T2 sequence (P23944 whole entry): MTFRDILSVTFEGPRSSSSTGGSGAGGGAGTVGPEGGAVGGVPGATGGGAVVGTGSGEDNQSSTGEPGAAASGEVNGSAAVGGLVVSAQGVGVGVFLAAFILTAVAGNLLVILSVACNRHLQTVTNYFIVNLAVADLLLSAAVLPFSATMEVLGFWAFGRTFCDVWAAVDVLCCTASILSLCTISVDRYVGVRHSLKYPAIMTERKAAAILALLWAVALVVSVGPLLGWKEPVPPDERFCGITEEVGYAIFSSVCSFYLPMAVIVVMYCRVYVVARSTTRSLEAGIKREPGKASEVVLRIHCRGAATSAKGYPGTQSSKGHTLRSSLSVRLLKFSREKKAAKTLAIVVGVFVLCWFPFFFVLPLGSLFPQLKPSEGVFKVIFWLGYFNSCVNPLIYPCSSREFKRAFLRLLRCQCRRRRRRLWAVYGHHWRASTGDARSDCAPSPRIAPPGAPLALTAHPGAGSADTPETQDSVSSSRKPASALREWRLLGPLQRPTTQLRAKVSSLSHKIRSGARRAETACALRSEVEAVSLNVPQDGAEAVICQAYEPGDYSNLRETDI
T2 sequence (P43140 whole entry): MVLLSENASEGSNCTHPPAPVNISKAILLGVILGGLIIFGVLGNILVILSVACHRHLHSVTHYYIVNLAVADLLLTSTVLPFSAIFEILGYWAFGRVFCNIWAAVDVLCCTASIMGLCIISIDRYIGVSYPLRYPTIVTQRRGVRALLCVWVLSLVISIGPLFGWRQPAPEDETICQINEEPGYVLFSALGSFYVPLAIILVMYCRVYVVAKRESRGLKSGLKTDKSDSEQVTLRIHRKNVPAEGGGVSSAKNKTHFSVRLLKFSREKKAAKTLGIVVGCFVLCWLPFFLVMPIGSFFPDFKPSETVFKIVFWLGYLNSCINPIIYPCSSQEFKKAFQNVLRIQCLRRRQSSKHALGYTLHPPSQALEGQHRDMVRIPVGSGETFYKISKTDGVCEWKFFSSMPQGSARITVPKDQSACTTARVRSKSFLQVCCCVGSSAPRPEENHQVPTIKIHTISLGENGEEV

pA2 [2] | pA2 [3] | SMILES | Selectivity ratio [1]
6.41 | 8.75 | COc1cc2nc(N3CCN(C(=O)c4ccco4)C(C)[C@H]3C)nc(N)c2cc1OC (stereo in doubt; 9) [listing 1 of 2 here] | –
5.94 | 8.13 | COc1cc2nc(N3CCN(C(=O)c4ccco4)C[C@H]3C)nc(N)c2cc1OC | 150
5.96 | 5.74 | COc1cc2nc(NC3CCCCC3NC(=O)c3ccco3)nc(N)c2cc1OC (cis isomer) [listing 2 of 2 here] | –
5.91 | 8.55 | CCC1[C@@H](CC)N(c2nc(N)c3cc(OC)c(OC)cc3n2)CCN1C(=O)c1ccco1 (stereo in doubt; 11) [listing 1 of 2 here] | –
5.15 | – | COc1cc2nc(N3CCN(C(=O)c4ccco4)C4CCCC[C@@H]43)nc(N)c2cc1OC (stereo in doubt; 14) | –
5.54 | 5.64 | COc1cc2nc(N(C)[C@@H]3CCCCC3N(C)C(=O)c3ccco3)nc(N)c2cc1OC (stereo in doubt; 6) [listing 2 of 2 here] | –
4.86 | 7.12 | COc1cc2nc(N3CCN(C(=O)c4ccco4)C(C)[C@H]3C)nc(N)c2cc1OC (stereo in doubt; 10) [listing 2 of 2 here] | –
5.05 | 7.09 | CCC1[C@@H](CC)N(c2nc(N)c3cc(OC)c(OC)cc3n2)CCN1C(=O)c1ccco1 (stereo in doubt; 12) [listing 1 of 2 here] | –

The next lines start with the compound.

SMILES | pA2 [2] | pA2 [3] | Selectivity ratio [1]
COc1cc2nc(N3CCN(C(=O)c4ccco4)C(C)[C@H]3C)nc(N)c2cc1OC (stereo in doubt; 10) [listing 1 of 2 here] | – | – | 180
COc1cc2nc(NC3CCCCC3NC(=O)c3ccco3)nc(N)c2cc1OC (cis isomer) [listing 1 of 2 here] | – | – | 0.6
COc1cc2nc(N(C)CCCCCCN(C)C(=O)c3ccco3)nc(N)c2cc1OC | – | – | 120
COc1cc2nc(N3CCN(C(=O)c4ccco4)C4CCCC[C@@H]43)nc(N)c2cc1OC (stereo in doubt; 13) | 5.08 | – | –
COc1cc2nc(NC3CCCCC3NC(=O)c3ccco3)nc(N)c2cc1OC (trans isomer) [listing 1 of 2 here] | 5.04 | 6.07 | –
COc1cc2nc(N(C)[C@@H]3CCCCC3N(C)C(=O)c3ccco3)nc(N)c2cc1OC (stereo in doubt; 5) [listing 1 of 2 here] | 5.41 | 5.8 | –
COc1cc2nc(N3CCN(C(=O)c4ccco4)C(C)C3)nc(N)c2cc1OC (stereo not drawn) | 5.23 | 8.61 | 2100
COc1cc2nc(N(C)[C@@H]3CCCCC3N(C)C(=O)c3ccco3)nc(N)c2cc1OC (stereo in doubt; 5) [listing 2 of 2 here] | – | – | 2.5
COc1cc2nc(NC3CCCCC3NC(=O)c3ccco3)nc(N)c2cc1OC (trans isomer) [listing 2 of 2 here] | – | – | 11
COc1cc2nc(N(C)[C@@H]3CCCCC3N(C)C(=O)c3ccco3)nc(N)c2cc1OC (stereo in doubt; 6) [listing 1 of 2 here] | – | – | 1.2
CCC1[C@@H](CC)N(c2nc(N)c3cc(OC)c(OC)cc3n2)CCN1C(=O)c1ccco1 (stereo in doubt; 11) [listing 2 of 2 here] | – | – | 440
COc1cc2nc(N3CCN(C(=O)c4ccco4)C(C)[C@H]3C)nc(N)c2cc1OC (stereo in doubt; 9) [listing 2 of 2 here] | – | – | 220
CCC1[C@@H](CC)N(c2nc(N)c3cc(OC)c(OC)cc3n2)CCN1C(=O)c1ccco1 (stereo in doubt; 12) [listing 2 of 2 here] | – | – | 110
